In PubChem BioAssay (NCI):
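Method: 48-hour compound exposure of cells in 96-well plates, five concentrations, linear interpolation of endpoints. GI50 marks 50% less growth. TGI is the concentration that stops growth completely.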

Key:
Assay in all cases: NCI-60 cell line screen, 48 h
DU-145 prostate = tested on: DU-145 prostate
COLO 205 colon = tested on: COLO 205 colon
UACC-257 melanoma = tested on: UACC-257 melanoma
HT29 colon = tested on: HT29 colon
T-47D breast = tested on: T-47D breast
CCRF-CEM leukemia = tested on: CCRF-CEM leukemia
NCI-H460 lung = tested on: NCI-H460 lung
HCT-116 colon = tested on: HCT-116 colon
IGROV1 ovarian = tested on: IGROV1 ovarian
OVCAR-4 ovarian = tested on: OVCAR-4 ovarian
RXF 393 renal = tested on: RXF 393 renal
HOP-62 NSCLC = tested on: HOP-62 NSCLC
SK-OV-3 ovarian = tested on: SK-OV-3 ovarian
SF-295 CNS = tested on: SF-295 CNS
MOLT-4 leukemia = tested on: MOLT-4 leukemia
HCT-15 colon = tested on: HCT-15 colon
SNB-19 CNS = tested on: SNB-19 CNS
OVCAR-5 ovarian = tested on: OVCAR-5 ovarian
CAKI-1 renal = tested on: CAKI-1 renal
UACC-62 melanoma = tested on: UACC-62 melanoma
786-0 renal = tested on: 786-0 renal
K-562 leukemia = tested on: K-562 leukemia
HCC-2998 colon = tested on: HCC-2998 colon
SF-539 CNS = tested on: SF-539 CNS
U251 CNS = tested on: U251 CNS
A549 NSCLC = tested on: A549 NSCLC
NCI-H522 lung = tested on: NCI-H522 lung

**Q.** What does the source list for `O=C(Nc1cc(Cl)ccc1O)c1cccc(NC2=C(Cl)C(=O)N(Cc3ccccc3)C2=O)c1`?
**A.** GI50 (DU-145 prostate): 60.7 µM; TGI (DU-145 prostate): > 100 µM; GI50 (COLO 205 colon): 30.9 µM; TGI (COLO 205 colon): > 100 µM; GI50 (UACC-257 melanoma): 23.8 µM; TGI (UACC-257 melanoma): 68.2 µM; GI50 (HT29 colon): 35.9 µM; TGI (HT29 colon): > 100 µM; GI50 (T-47D breast): 29 µM; TGI (T-47D breast): > 100 µM; GI50 (CCRF-CEM leukemia): 2.14 µM; TGI (CCRF-CEM leukemia): 11.5 µM; GI50 (NCI-H460 lung): 18.6 µM; TGI (NCI-H460 lung): 40.9 µM; GI50 (HCT-116 colon): 17.2 µM; TGI (HCT-116 colon): 31 µM; GI50 (IGROV1 ovarian): 35.4 µM; TGI (IGROV1 ovarian): > 100 µM; GI50 (OVCAR-4 ovarian): 55.5 µM; TGI (OVCAR-4 ovarian): > 100 µM; GI50 (RXF 393 renal): 17.4 µM; TGI (RXF 393 renal): 45.1 µM; GI50 (HOP-62 NSCLC): 26.7 µM; TGI (HOP-62 NSCLC): 67.3 µM; GI50 (SK-OV-3 ovarian): 69.1 µM; TGI (SK-OV-3 ovarian): > 100 µM; GI50 (SF-295 CNS): 20.5 µM; TGI (SF-295 CNS): 47.6 µM; GI50 (MOLT-4 leukemia): 3.24 µM; TGI (MOLT-4 leukemia): 15.8 µM; GI50 (HCT-15 colon): 13.3 µM; TGI (HCT-15 colon): 27.6 µM; GI50 (SNB-19 CNS): 48.4 µM; TGI (SNB-19 CNS): > 100 µM; GI50 (OVCAR-5 ovarian): 45.8 µM; TGI (OVCAR-5 ovarian): > 100 µM; GI50 (CAKI-1 renal): 22.5 µM; TGI (CAKI-1 renal): 68 µM; GI50 (UACC-62 melanoma): 31.7 µM; TGI (UACC-62 melanoma): > 100 µM; GI50 (786-0 renal): 22.7 µM; TGI (786-0 renal): 50.9 µM; GI50 (K-562 leukemia): 15.2 µM; TGI (K-562 leukemia): 38.5 µM; GI50 (HCC-2998 colon): 17 µM; TGI (HCC-2998 colon): 32.1 µM; GI50 (SF-539 CNS): 27.2 µM; TGI (SF-539 CNS): 58.9 µM; GI50 (U251 CNS): 18.2 µM; TGI (U251 CNS): 37.3 µM; GI50 (A549 NSCLC): 36.9 µM; TGI (A549 NSCLC): > 100 µM; GI50 (NCI-H522 lung): 11.2 µM; TGI (NCI-H522 lung): 26.3 µM
